In patent US8673554B2, “Multiplex cell signalling assays” (Ge Healthcare UK Limited, priority 2008, dated 2014):

Columns and labels:
Assay type in all cases: cell-based, human
U2OS cells [1] = test: Calcium transient (Fluo-4 fluorescence) in stimulated U2OS cells, IN Cell Analyzer 1000; settings: for cytosolic intracellular calcium (emitted fluorescence of Fluo-4): test agent 1.56-100 μM, over eight minutes, peak and decline, dose dependent, FIG. 1 / FIG. 4
Description: i) U2OS cells were seeded into 96-well Greiner cluster plates at 6000 cell/well in 100 μl of complete McKoys media and incubated overnight at 37° C., 5% CO2.
ii) Loading buffer was prepared with 42.8 ml of calcium flux buffer with 6.65 ml of 7.5% albumin This buffer was stored at 37° C.
iii) 120 ml of maintenance buffer was prepared with 118.16 ml calcium flux buffer and 1840 μl of 7.5% albumin

U2OS cells [2] = test: Cell-associated IL-6, chemiluminescent anti-IL-6-HRP assay on LEADSEEKER imaging system, same cells after the calcium transient; settings: after stimulation (A23187 4 hours, histamine overnight); FIG. 3 / FIG. 5
Description: Cells were contacted with the test agent (calcium ionophore A23187) for 4 hours and cell-associated IL-6 measured post cell-stimulation with the test agent. After stimulation, the cell supernatant was decanted, the cells were washed thoroughly X3 with PBS, before incubating with the anti-IL-6 antibody. The cells were washed ×3 with PBS before addition of the chemiluminescent substrate. Results from the calcium transient were obtained prior to the IL-6 results using the same population of cells. The results (FIG. 3) were obtained using a […] ™ Multimodality Imaging System, exposing for 20 seconds, using the chemiluminescent substrate and the luminescent signal reporter (anti-IL-6 labelled with the enzyme horseradish peroxidise).
The results were obtained on the […] ™ Multimodality Imaging System, exposing for 20 seconds, using the chemiluminescent substrate and the luminescent signal reporter (anti-IL-6 labelled with the enzyme horseradish peroxidise).
iv) 5 mg of calcium ionophore A23187 was dissolved in 1 ml of DMSO. The ionophore was subsequently diluted in complete maintenance buffer to give final concentration of ionophore over the range of 1.56-100 μM. Fluo-4 dye was prepared by adding 456 μl DMSO to a 50 μg vial, and the vial was mixed well to provide a Fluo-4 stock concentration of 100 μM. […]

U2OS cells [3] = test: Cell-associated IL-6 immunocytochemistry (Cy5 second antibody) combined with intracellular calcium, IN Cell Analyzer 1000; settings: 4 hours contact; Example 4, FIG. 8
Description: 4. Combination Assay of Intracellular Calcium and Human Interleukin-6 from Calcium Ionophore A23187-Stimulated U2OS Cells on IN Cell Analyzer 1000 4.1 Materials Anti-IL-6 (R&D Systems) Goat anti-human IgG CY™ 5 linked (GE Healthcare) Calcium ionophore A23187 (Sigma) U2OS cells (European Collection of Cell Cultures, Porton Down, UK) 4.2 Method and Results i) U2OS cells were seeded into 96-well tissue culture plates at 6000 cell/well in 100 μl of complete McKoys media and incubated overnight at 37° C., 5% CO2. ii) Cells were stimulated with A23187 for 8 minutes before measurement of a calcium transient on an IN Cell Analyzer 1000 as described in Example 1. […] The results from this assay were measured on an IN Cell Analyzer 1000 using a 10× objective, 505 light pass dichroic 475/535 filter set 200 ms exposure. […] Cells were contacted with the test agent (calcium ionophore A23187) for 4 hours and cell-associated IL-6 measured post cell-stimulation with test agent. After stimulation with the ionophore, the supernatant was decanted and the cells were washed thoroughly X3 with PBS. […] The results were analysed using an object intensity algorithm (IN Cell Investigator software). […]

[4] = system: EGFP-NFATc1 transfected U2OS cells; test: EGFP-NFATc1 translocation assay, Nuclear Trafficking Analysis module; settings: 60 minutes incubation; FIG. 11 / FIG. 14
Description: The present patent specification describes a method for monitoring the NFATC1 signalling pathway with a cell-secreted, cell-associated analyte. The assay method is based on the intracellular translocation of an EGFP-NFATc1 fusion protein in stably transfected mammalian cells. NFATc1 is a transcription factor involved in T-cell signalling and tissue development. […] Following activation with agonists these translocate to the nucleus.
The NFAT assay is optimised for image acquisition and analysis on the IN Cell Analysis System (GE Healthcare) using the Nuclear Trafficking-Analysis Module, although the assay can be imaged on other systems. The Nuclear Trafficking-Analysis Module measures the degree of EGFP-NFAT translocation from the cytoplasm to the nucleus on the addition of agonists.
• 1. Incubate the microplate at 37° C., 5% CO2 and 95% humidity. • 2. The day before commencing the assay, seed at 1×10^4 cells per well in 200 μl of growth medium. Incubate for 24 hours at 37° C. If one of the wells on the cell plate is used for flat field correction, it should not contain cells. • 3. […]
• 1. […] Cells were contacted with test agent for a further 3-18 hours and cell associated TNF, IL-8 or PDGF was measured post stimulation with test agent. • 8. […] The results were analysed using an object intensity algorithm (IN Cell Investigator software). […]

[5] = system: EGFP-NFAT1c transfected U2OS cells; test: Cell-associated PDGF immunofluorescence combined with EGFP-NFAT1c translocation; settings: further 3-18 hours contact; FIG. 12
Description: • 1. The day before commencing the assay, seed EGFP-NFATc1 transfected U2OS cells at 1×10^4 cellsper well in 200 μl of growth medium. • 2. On the day of the assay, prepare the test agent (ionomycin, ionomycin+PMA, A23187). These samples are typically prepared in assay medium. • 3. Decant the growth medium from the cell plate, removing all excess liquid and add 200 μl. Using the cell culture medium, wash the cells. Decant the wash. • 4. Add […] assay medium containing test agent. Incubate for 60 minutes. • 5. The total volume is 200 μl. After the suitable incubation period, image the plate on the IN Cell Analyzer 1000 using appropriate filters and dichroic mirror. • 6. Carry out the data analysis using the Nuclear Trafficking Analysis module. • 7. Cells were contacted with test agent for a further 3-18 hours and cell associated TNF, IL-8 or PDGF was measured post stimulation with test agent. • 8. After stimulation with the test agent, the supernatant was decanted and the cells were washed ×3 with PBS. […] The results were analysed using an object intensity algorithm (IN Cell Investigator software). […]

Compound | intracellular calcium compared with the unstimulated (zero ionophore) control (U2OS cells [1]; 1.56 μM ionophore, 8 minutes stimulation, FIG. 7) | intracellular calcium with increasing concentration of the ionophore (U2OS cells [1]; Example 4, FIG. 8) | cytosolic intracellular calcium (emitted fluorescence of Fluo-4) (U2OS cells [1]) | cell-associated IL-6 (U2OS cells [2]) | cell-associated IL-6 with increasing concentration of the ionophore (U2OS cells [3]) | EGFP-NFAT1c translocation [4] | cell-associated PDGF release [5]
CNc1ccc2oc(C[C@H]3O[C@@]4(CC[C@H]3C)O[C@H]([C@H](C)C(=O)c3ccc[nH]3)[C@H](C)C[C@H]4C)nc2c1C(=O)O [calcium ionophore A23187, Calcium ionophore A23187] | increase in intracellular calcium | dose-dependent rise | increase in cytosolic intracellular calcium | increase in cell-associated IL-6 | dose-dependent rise | EGFP-NFAT1c cell response | –
NCCc1c[nH]cn1 [histamine, Histamine] | – | – | increase in cytosolic intracellular calcium | increase in cell-associated IL-6 | – | – | –
C[C@H](CCC(=O)O)C[C@H](C)C[C@H](C)C(=O)/C=C(\O)[C@H](C)C[C@H](C)C/C=C/[C@@H](C)[C@@H](O)[C@@H](C)[C@@H](O)C[C@@H]1CC[C@@](C)([C@H]2CC[C@@](C)([C@@H](C)O)O2)O1 [ionomycin, Ionomycin] | – | – | – | – | – | EGFP-NFAT1c cell response | PDGF release
